We go through two compounds from patent publication US20210145838A1, “SELECTIVE PDE4D INHIBITORS AGAINST DEMYELINATING DISEASES” (Universiteit Hasselt, priority 2018, published 2021).

For assay [1], the system named is cuprizone demyelinated mice. The assay is described as follows: Object location task (spatial memory) in cuprizone-demyelinated mice. The format is in vivo, mouse. The following applies: for Spatial discrimination index (d2), object location task: day 45 and 47; for Spatial memory in the object location task (D2): day 47, 3 h inter-trial-interval. An excerpt:
FIG. 11: Inhibition of PDE4 by roflumilast improves spatial memory upon cuprizone-induced demyelination—a functional measure for remyelination. Forty-two nine-weeks-old male C57bl6 mice were trained for the object location task (OLT) as described previously (Sierksma et al. 2014) (day −14−0). Subsequently, three groups were fed a 0.3% cuprizone diet for 6 weeks to induce demyelination while the control group received a regular chow diet (day 0-42). From day 40 till day 49, control (n=10) and vehicle (n=10) treated animals received a s.c. injection with a 1% DMSO in 0.5% methylcellulose solution or roflumilast (roflu 1 mg/kg (n=11) or roflu 3 mg/kg (n=11) in vehicle) twice a day. All animals were sacrificed at day 49 (A). During the last phase of the cuprizone treatment (demyelination), the OLT was performed at the 3 h inter-trial-interval at day 39.
Next, the OLT was performed during remyelination following cuprizone withdrawal, respectively at 47. […] A one sample t-test was performed to test for spatial memory (e.g. D2≠0*p<0.05; **p<0.01; ***p<0.001). […] All mice not reaching an exploration time of 4 s in either of two trials were excluded from analyses. Extreme values were excluded by means of Dixon's principles of exclusion of extreme values.
FIG. 14: Inhibition of PDE4D by Gebr32a improves spatial memory upon cuprizone-induced demyelination—a functional measure for remyelination. Eighty-eight nine-weeks-old male C57bl6 mice were trained for the object location task (OLT; n=22 per group) as described previously (Sierksma et al. 2014) (day −14−0). Subsequently, three groups were fed a 0.3% cuprizone diet for 6 weeks to induce demyelination while the control group received a regular chow diet (day 0-42). From day 40 till day 49, control and vehicle treated animals received a s.c. injection with a 1% DMSO in 0.5% methylcellulose solution or gebr32a (0.1 mg/kg or 0.3 mg/kg in vehicle) twice a day. All animals were sacrificed at day 49 (A).
Next, the OLT was performed during remyelination following cuprizone withdrawal, respectively at day 45 and 47.
A one sample t-test was performed to test for spatial memory (e.g. D2=/0; *p<0.05; **p<0.01; ***p<0.001). A one-way ANOVA with a Tukey's multiple comparison test was performed. All mice not reaching an exploration time of 4 s in either of two trials were excluded from analyses. Extreme values were calculated and excluded by means of Dixon's principles of exclusion of extreme values.
At the start of the experiment, all animals were phenotyped for baseline cognitive performance in the object location task. Afterwards, 4 groups were defined (n1=13, n2=16, n3=11, n4=11) and group 2, 3 and 4 were subjected to a 0.3% w/w cuprizone diet (Bis(cyclohexanone)-oxaldihydrazone) (Sigma-Aldrich, United States) for 42 days. […]

In assay [2] the test system is demyelinated cerebellar brain slices. The assay is described as follows: Ex vivo (re)myelination in lysolecithin-demyelinated cerebellar brain slices. The format is cell-based, mouse. The conditions noted are these: 14-days treatment, vs vehicle. The protocol:
FIG. 6: Inhibition of PDE4 by roflumilast induces (re)myelination in demyelinated brain slices. Mouse brain slices ([…]) were trimmed from the cerebellum of p10 C57bl6 pups. After 1 week in culture, brain slices were demyelinated using lysolecithin (16 h) and subsequently treated for 14 days with 5 μM roflumilast or vehicle (0.1% DMSO). Treatment was repeated every 2 days with a 60% medium replenishment. Brain slices were fixated using 4% paraformaldehyde and stained for MBP, neurofilament and counterstained with the nuclear DAPI dye. Three slices per animal were quantified for % myelinated axons (n:2/group).
FIG. 7: Inhibition of PDE4D by gebr32a induces (re)myelination in demyelinated brain slices. Mouse brain slices (370 μM) were trimmed from the cerebellum of p10 C57bl6 pups. […] Three slices per animal were quantified for % myelinated axons (n:2/group). […]
Organotypic cerebellar brain slices were fixed in 4% paraformaldehyde at room temperature for 40 minutes and incubated with primary antibodies diluted in blocking buffer (5% bovine serum albumin (BSA) and 0.05% Tween 20 in PBS) for 4 h at room temperature. […] Quantification was done using Fiji ImageJ by counting the percentage of myelinated axons crossing a predefined cross-sectional path.

On to `OC(CN1CCOCC1)Cn1ccc(-c2ccc(OC(F)F)c(OC3CCCC3)c2)n1` (stereo not drawn) [Gebr32a], for which the “Spatial discrimination index (d2), object location task” value in assay [1] (0.1 mg/kg s.c. twice a day) and in assay [1] (0.3 mg/kg s.c. twice a day) was “restored the spatial discrimination index (d2) to a level comparable to that of the control animals” each time. Besides, in assay [2] (0.5 μM), the “MBP alignment with neurofilament (% myelinated axons)” value is on record as “four-fold increase”.
`O=C(Nc1c(Cl)cncc1Cl)c1ccc(OC(F)F)c(OCC2CC2)c1` [roflumilast]: the “Spatial memory in the object location task (D2)” value was “did not show a recovery of the spatial memory” in assay [1] (1 mg/kg s.c. twice a day) and “significant recovery of spatial memory” in assay [1] (3 mg/kg s.c. twice a day). Also, the “MBP alignment with neurofilament (% myelinated axons)” value in assay [2] (5 μM) is listed as “four-fold increase”.
